One experiment has as its system Fusarium oxysporum f. callistephi. Description: Fusarium infested compost soil, Callistephus chinesis seedlings (Example 5). As to conditions: 50 mg active ingredient per liter of soil; of 4 seedlings. The class given is in vivo. From the text:
Steamed compost soil was inoculated with a spore suspension of Fusarium oxysporum f. callistephi. After homogeneous mixture of the products with the infested soil, the products were present as 20% powder preparations, and after a waiting period of 8 days, there were set out per concentration 4 seedlings of Callistephus chinesis, master aster "Sun Ray" as host plants.
In the case of `O=C1C2CC=CCC2C(=O)N1SC(Cl)(Cl)Cl` (stereo not shown) [N-(trichloromethylthio)-cyclohex-4-ene-1,2-dicarboximide, reference compound], the “Number of attacked plants after 3 weeks” value was determined as 4.

The experiment is the same for the next values; noted with them: 100 mg active ingredient per liter of soil; of 4 seedlings.
Take `O=C1C2CC=CCC2C(=O)N1SC(Cl)(Cl)Cl` (stereo not shown) [N-(trichloromethylthio)-cyclohex-4-ene-1,2-dicarboximide, reference compound]: the “Number of attacked plants after 3 weeks” value was determined as 4.

The experiment is the same for the next values; noted with them: 200 mg active ingredient per liter of soil; of 4 seedlings.
With `O=C1C2CC=CCC2C(=O)N1SC(Cl)(Cl)Cl` (stereo not shown) [N-(trichloromethylthio)-cyclohex-4-ene-1,2-dicarboximide, reference compound], the “Number of attacked plants after 3 weeks” value turned out to be 4.

The subject of another experiment is Pythium ultimum. The experiment in a line: Pythium ultimum infested compost soil, marrow peas (Example 2). The class given is in vivo. As to conditions: 10 mg active ingr. per liter of soil; 3 weeks. An excerpt: Steamed compost soil was inoculated with mycelium of Pythium ultimum.
In the case of `CS(=O)(=O)c1nnc(CCl)s1` [Compound 15, 2-chloromethyl-5-methylsulfonyl-1,3,4-thiadiazole], the “Weight of fresh plant” value was determined as 20 g.
In the case of `CS(=O)(=O)c1nnc(CBr)s1` [Compound 30, 2-bromomethyl-5-methylsulfonyl-1,3,4-thiadiazole], the “Weight of fresh plant” value was found to be 18 g.

Staying with this experiment, now noted: 10 mg active ingr. per liter of soil; of 25 grains.
On to `CS(=O)(=O)c1nnc(CCl)s1` [Compound 15, 2-chloromethyl-5-methylsulfonyl-1,3,4-thiadiazole], for which the “Number of sound peas after 3 wks.” value came out at 22.
As to `CS(=O)(=O)c1nnc(CBr)s1` [Compound 30, 2-bromomethyl-5-methylsulfonyl-1,3,4-thiadiazole], the “Number of sound peas after 3 wks.” value is listed as 21.

The experiment is the same for the next values; noted with them: 20 mg active ingr. per liter of soil; 3 weeks.
For the compound `CS(=O)(=O)c1nnc(CCl)s1` [Compound 15, 2-chloromethyl-5-methylsulfonyl-1,3,4-thiadiazole], the “Weight of fresh plant” value amounted to 20 g.
Consider `CS(=O)(=O)c1nnc(CBr)s1` [Compound 30, 2-bromomethyl-5-methylsulfonyl-1,3,4-thiadiazole], for which the “Weight of fresh plant” value was 24 g.

Staying with this experiment, now noted: 20 mg active ingr. per liter of soil; of 25 grains.
In the case of `CS(=O)(=O)c1nnc(CCl)s1` [Compound 15, 2-chloromethyl-5-methylsulfonyl-1,3,4-thiadiazole], the “Number of sound peas after 3 wks.” value stood at 23.
Regarding `CS(=O)(=O)c1nnc(CBr)s1` [Compound 30, 2-bromomethyl-5-methylsulfonyl-1,3,4-thiadiazole], the “Number of sound peas after 3 wks.” value was determined as 24.

The experiment is the same for the next values; noted with them: 30 mg active ingr. per liter of soil; 3 weeks.
Regarding `CS(=O)(=O)c1nnc(CCl)s1` [Compound 15, 2-chloromethyl-5-methylsulfonyl-1,3,4-thiadiazole], the “Weight of fresh plant” value is recorded as 20 g.
As to `CS(=O)(=O)c1nnc(CBr)s1` [Compound 30, 2-bromomethyl-5-methylsulfonyl-1,3,4-thiadiazole], the “Weight of fresh plant” value worked out at 18 g.

Staying with this experiment, now noted: 30 mg active ingr. per liter of soil; of 25 grains.
`CS(=O)(=O)c1nnc(CCl)s1` [Compound 15, 2-chloromethyl-5-methylsulfonyl-1,3,4-thiadiazole]: the “Number of sound peas after 3 wks.” value was determined as 24.
On the same count and under the same terms, to `CS(=O)(=O)c1nnc(CBr)s1` [Compound 30, 2-bromomethyl-5-methylsulfonyl-1,3,4-thiadiazole] belongs 22.

Still in this experiment, the particulars now being: 200 mg active ingr. per liter of soil; 3 weeks.
Consider `O=C1C2CC=CCC2C(=O)N1SC(Cl)(Cl)Cl` (stereo not shown) [N-(trichloromethylthio)-cyclohex-4-ene-1,2-dicarboximide, reference compound], for which the “Weight of fresh plant” value is on record as 6 g.

The experiment is the same for the next values; noted with them: 200 mg active ingr. per liter of soil; of 25 grains.
As to `O=C1C2CC=CCC2C(=O)N1SC(Cl)(Cl)Cl` (stereo not shown) [N-(trichloromethylthio)-cyclohex-4-ene-1,2-dicarboximide, reference compound], the “Number of sound peas after 3 wks.” value turned out to be 13.

A further experiment relates to Rhizoctonia solani. Description: Limit concentration of soil-fungicidal effectiveness, Rhizoctonia solani, infested soil seeded with peas (Example 1). The class given is in vivo. The conditions noted are these: soil, 480 h, 20 to 23 days, 22°-25° C, read-out: Limit concentration of the fungicidal effectiveness. The method, then: Limit concentrations of the soil-fungicidal effectiveness at homogeneous mixture of the products with the infested soil. Basic condition in the evaluation are a sound root formation without fungus necroses and germination of the seed of at least 90% compared with the result obtained in steamed soil. Per concentration there were seeded 25 grains of peas of the variety "Miracle of Kelvedon" (marrow pea) without a waiting period. The cultivation time in the tests was 20 to 23 days at a temperature of 22°-25° C. Four commercial products were included in the test series.
Rhizoctania solani: -- Steamed compost soil was inoculated with mycelium of Rhizoctonia solani.
In the case of `C[S+]([O-])c1nnc(CCl)s1` (stereo not shown) [Compound 2, 2-chloromethyl-5-methylsulfinyl-1,3,4-thiadiazole], the minimal effective concentration worked out at 50 µg/mL.
As to `CC(C)[S+]([O-])c1nnc(C(Cl)Cl)s1` (stereo not shown) [Compound 6, 2-dichloromethyl-5-isopropylsulfinyl-1,3,4-thiadiazole], the minimal effective concentration was found to be 50 µg/mL.
For the compound `CC(C)[S+]([O-])c1nnc(C(Cl)(Cl)Cl)s1` (stereo not shown) [Compound 11, 2-trichloromethyl-5-isopropylsulfinyl-1,3,4-thiadiazole], the minimal effective concentration worked out at 50 µg/mL.
Consider `CCCCCCCC[S+]([O-])c1nnc(C(Cl)(Cl)Cl)s1` (stereo not shown) [Compound 14, 2-trichloromethyl-5-octylsulfinyl-1,3,4-thiadiazole], for which the minimal effective concentration is 100 µg/mL.
With `CS(=O)(=O)c1nnc(CCl)s1` [Compound 15, 2-chloromethyl-5-methylsulfonyl-1,3,4-thiadiazole], the minimal effective concentration is 100 µg/mL.
`CC(C)S(=O)(=O)c1nnc(CCl)s1` [Compound 16, 2-chloromethyl-5-isopropylsulfonyl-1,3,4-thiadiazole]: the minimal effective concentration is 200 µg/mL.
On the same count and under the same terms, under `CC(C)S(=O)(=O)c1nnc(C(Cl)Cl)s1` [Compound 20, 2-dichloromethyl-5-isopropylsulfonyl-1,3,4-thiadiazole] stands 50 µg/mL.
`CS(=O)(=O)c1nnc(CBr)s1` [Compound 30, 2-bromomethyl-5-methylsulfonyl-1,3,4-thiadiazole]: the minimal effective concentration amounted to 150 µg/mL.
Still for that read-out and setting: under `CCS(=O)(=O)c1nnc(CBr)s1` [Compound 31, 2-bromomethyl-5-ethylsulfonyl-1,3,4-thiadiazole] stands more than 200 µg/mL.
Still for that read-out and setting: under `C[S+]([O-])c1nnc(CF)s1` (stereo not shown) [Compound 33, 2-fluoromethyl-5-methylsulfinyl-1,3,4-thiadiazole] stands 20 µg/mL.
As to `CS(=O)(=O)c1nnc(CF)s1` [Compound 34, 2-fluoromethyl-5-methylsulfonyl-1,3,4-thiadiazole], the minimal effective concentration came to 30 µg/mL.
`C[S+]([O-])c1nnc(C(F)(F)F)s1` (stereo not shown) [Compound 35, 2-trifluoromethyl-5-methylsulfinyl-1,3,4-thiadiazole]: the minimal effective concentration was 20 µg/mL.
Take `CC[S+]([O-])c1nnc(C(F)(F)F)s1` (stereo not shown) [Compound 36, 2-trifluoromethyl-5-ethylsulfinyl-1,3,4-thiadiazole]: the minimal effective concentration turned out to be 20 µg/mL.
Same read-out and setting: to `CC(C)C[S+]([O-])c1nnc(C(F)(F)F)s1` (stereo not shown) [Compound 37, 2-trifluoromethyl-5-isobutylsulfinyl-1,3,4-thiadiazole] belongs 100 µg/mL; to `CCCCC[S+]([O-])c1nnc(C(F)(F)F)s1` (stereo not shown) [Compound 38, 2-trifluoromethyl-5-pentylsulfinyl-1,3,4-thiadiazole], 40 µg/mL.
`CCCCCC[S+]([O-])c1nnc(C(F)(F)F)s1` (stereo not shown) [Compound 39, 2-trifluoromethyl-5-hexylsulfinyl-1,3,4-thiadiazole]: the minimal effective concentration is 40 µg/mL.
`CCS(=O)(=O)c1nnc(C(F)(F)F)s1` [Compound 40, 2-trifluoromethyl-5-ethylsulfonyl-1,3,4-thiadiazole]: the minimal effective concentration was 20 µg/mL.
Same read-out and setting: to `CC(C)S(=O)(=O)c1nnc(C(F)(F)F)s1` [Compound 41, 2-trifluoromethyl-5-isopropylsulfonyl-1,3,4-thiadiazole] belongs 20 µg/mL.
Regarding `CC(C)CS(=O)(=O)c1nnc(C(F)(F)F)s1` [Compound 42, 2-trifluoromethyl-5-isobutylsulfonyl-1,3,4-thiadiazole], the minimal effective concentration was found to be 100 µg/mL.
Consider `CCCCCCS(=O)(=O)c1nnc(C(F)(F)F)s1` [Compound 43, 2-trifluoromethyl-5-hexylsulfonyl-1,3,4-thiadiazole], for which the minimal effective concentration came to 50 µg/mL.
Consider `CCCCCCCS(=O)(=O)c1nnc(C(F)(F)F)s1` [Compound 44, 2-trifluoromethyl-5-heptylsulfonyl-1,3,4-thiadiazole], for which the minimal effective concentration came out at 50 µg/mL.
On to `CS(=O)(=O)c1nnc(C(F)(F)C(F)(F)F)s1` [Compound 45, 2-pentafluoroethyl-5-methylsulfonyl-1,3,4-thiadiazole], for which the minimal effective concentration is more than 100 µg/mL.
The same measure, in the same setting: to `CC(Cl)(Cl)c1nnc(S(C)(=O)=O)s1` [Compound 47, 2-(1,1-dichloroethyl)-5-methylsulfonyl-1,3,4-thiadiazole] belongs 50 µg/mL; to `CCC(Cl)c1nnc([S+](C)[O-])s1` (stereo not shown) [Compound 48, 2-(1-chloropropyl)-5-methylsulfinyl-1,3,4-thiadiazole], 100 µg/mL; to `CCC(Cl)c1nnc(S(C)(=O)=O)s1` (stereo not shown) [Compound 49, 2-(1-chloropropyl)-5-methylsulfonyl-1,3,4-thiadiazole], 50 µg/mL.
Same read-out and setting: under `CC(Br)c1nnc(S(C)(=O)=O)s1` (stereo not shown) [Compound 50, 2-(1-bromoethyl)-5-methylsulfonyl-1,3,4-thiadiazole] stands 100 µg/mL.
Take `CC(C)C(Br)c1nnc(S(C)(=O)=O)s1` (stereo not shown) [Compound 51, 2-(1-bromisobutyl)-5-methylsulfonyl-1,3,4-thiadiazole]: the minimal effective concentration worked out at 50 µg/mL.

The experiment is the same for the next values; noted with them: soil, 480 h, read-out: Limit concentration of the fungicidal effectiveness.
Consider `CS(=O)(=O)c1nnc(C(F)(F)C(F)(F)C(F)(F)F)s1` [Compound 46, 2-heptafluoropropyl-5-methylsulfonyl-1,3,4-thiadiazole], for which the minimal effective concentration is 100 µg/mL.
The same measure, in the same setting: to `O=C1C2CC=CCC2C(=O)N1SC(Cl)(Cl)Cl` (stereo not shown) [N-(trichloromethylthio)-cyclohex-4-ene-1,2-dicarboximide, reference compound] belongs 300 µg/mL.

Source of the values: patent publication US4061645A, “2-Trichloromethyl-5-methylsulfinyl-1,3,4-thiadiazole” (Schering Aktiengesellschaft, priority 1972, dated 1977).
